Data from patent US12691100B2, “NMT inhibitor treatment of a senescence-associated disease or disorder of the liver” (Imperial College Innovations Limited, priority 2020, dated 2026).

Columns and labels:
[1] = test system: IMR90 ER:RAS cells; assay: Senolytic activity under IRE1 inhibition with KIRA6; assay type: cell-based, human; details: 600 nM KIRA6 from day 4 post-induction; Compound 1 or 2 from day 7; read at day 12; FIGS. 15A-B
Description: High-throughput microscopy survival assay—To assess senolytic effect of drugs, cells were cultured for 7 days, culture media was changed to DM0.5 media and drugs in DMSO were added (<5% v/v final concentration), drugs were replenished after 3 days if assay length was longer than 72 h. Wells were fixed in 4% PFA for 1 hour at day 10 to 14, washed 3 times with PBS and then stained with 1 μg/mL DAPI (w/v, PBS) for 10 minutes. Wells were then washed 3 times with PBS. Optionally plates could be stored at 4° C. for up to 2 weeks and DAPI stained. Image acquisition of DAPI stained cells was performed on an automated InCell Analyser 2000 (GE Healthcare®) and high-content analysis on the InCell Investigator 2.7.3 software used to quantify number of DAPI positive cells per well. A top-hat method was used to segment cell-nuclei based on DAPI stained area and a minimum nuclear area threshold of 80 μm used to exclude debris. For cancer cell lines, nuclear area threshold was reduced to 40 μm. Survival was measured as cell counts relative to DMSO treated quiescent or senescent cells.
To investigate whether the activation of UPR caused by NMT inhibition in senescent cells was responsible for the senolytic potential of NMT inhibitors, cells were treated with KIRA6, a selective inhibitor of IRE1, a kinase necessary for the UPR. IMR90 ER:RAS cells undergoing senescence (after induction with 4OHT), were treated with 600 nM KIRA6 (an IRE1 inhibitor) on day 4 post-induction. On day 7 post-induction, cells were treated with Compound 1 or 2 and 600 nM KIRA6. […] Both NMT inhibitor and Kira6 were replenished 3 days after addition of NMT inhibitor (at day 10 post-induction). Data is shown as mean±SD, n represents independent biological experiments.

[2] = test system: HCT116; assay: Senescence induction by chemotherapeutic drugs (BrdU, SA-β-Galactosidase, p21CIP1); assay type: cell-based, human; details: 7 days after treatment, doxorubicin 100 nM, etoposide 2 μM, cisplatin 100 μM; for BrdU incorporation (cell division): FIG. 6A; for SA-β-Galactosidase activity / p21^CIP1 expression: FIGS. 6B-C
Description: (§1) IMR90 cells were used to generate inducible ER:RAS (hereinafter iRAS) cells to model Oncogene induced senescence (OIS), through retroviral infection of pLNC-ER:RAS-neo into IMR90 cells followed by selection with Neomycin. IMR90 cells containing the pLNC-ER:RAS plasmid backbone pLXSN were infected in parallel to assess leakiness in the pLNC-ER:RAS system. Treatment with 100 nM 4OHT (Sigma, in DMSO) was used to induce IMR90 ER:RAS cells to undergo oncogene induced senescence (OIS). Therapy induced senescence (TIS) was induced in IMR90 cells by treatment with 33 μM (50 ug/ml) bleomycin sulphate (Generon, HY-17565) for 24 hours, 20 μM palbociclib (Selleckchem, S1116) for 7 days or 100 nM doxorubicin (Cayman chemical, 15007) for 7 days. Senescence was induced in SK-HEP-1 cells by treatment with 2 μM etoposide (Sigma-Aldrich, E1383) for 7 days (FIGS. 4A-C). HCT-116 senescence was induced by 250 nM treatment with doxorubicin (Cayman chemical, 15007) for 48 hours followed by 5 days culture in media without chemotherapy (FIG. 5), or by treatment with 100 nM doxorubicin, 2 μM etoposide or 100 μM cisplatin for 3 days followed by 4 days culture in media without chemotherapy (FIGS. 6A-7C). Senescence was induced in MCF7 by 200 nM treatment with doxorubicin for 7 days, 2 μM etoposide for 7 days or 10 μM cisplatin for 7 days (FIGS. 8A-9C).
(§2) BrdU Incorporation—Cell proliferation was assessed through incorporation of nucleotide analogue 5-Bromo-2′-deoxyuridine (BrdU) into cells. 2×10^3 or 8×10^3 IMR90 cells were seeded into 96-well plates in duplicate for DMSO/palbociclib treated and bleomycin/doxorubicin treated cells respectively. 10 μM BrdU was added to cells 18 h before desired time point and wells were then washed in PBS and fixed using 4% paraformaldehyde (w/v, PBS) for 45 minutes to 1 hour before removal and washing 3 times with PBS. BrdU incorporation was assessed via immunofluorescence and high-content analysis (see section ‘Immunofluorescence & High throughput microscopy’).
(§3) Immunofluorescence staining was carried out by first fixing wells of 96 well plate at desired timepoint for 1 hour using 4% PFA (w/v, in PBS) followed by washing 3 times with PBS. Wells were then permeabilized using 0.2% Triton® X-100 (v/v, PBS) for 10 min or with 0.5% Triton® X-100 (v/v, PBS) for COPI staining. Wells were then washed twice with PBS to halt permeabilization and then non-specific antibody binding blocked by incubation with a blocking solution for 1 hour at RT. Blocking solution contained 1% BSA (w/v, PBS) supplemented with 0.4% Fish Skin Gelatin (v/v, PBS). Primary antibodies were diluted in respective blocking solution (see ‘Antibodies’ for dilutions), blocking solution removed from well and incubated with primary antibody solution for 1 hour at RT. For BrdU staining primary antibody solution is supplemented with 0.5 U/ul DNase (Sigma) and 1 mM MgCl2 and incubation times reduced to 30 minutes. Following incubation, primary antibody was then removed by washing 3 times with PBS. Secondary antibodies conjugated to Alexa-594 or Alexa-488 fluorophores were then diluted in blocking solution added to wells to be incubated in dark for 1 hour. Secondary antibody was then removed by washing 3 times with PBS and nuclei counterstaining with 1 μg/mL DAPI (w/v, PBS) for 10 minutes. Wells were then washed with PBS three times.
(§4) In a second experiment, HCT116 were treated with doxorubicin, etoposide or cisplatin (to induce senescence) or DMSO (as a control). 7 days after treatment, BrdU incorporation (to assess cell division), SA-β-Galactosidase activity and p21^CIP1 expression (as markers of senescence) were analysed. […] Media and compounds were replenished after 72 h of treatment and cultured for 48 h more before fixation and measurement of survival via high-throughput microscopy. DMSO/Doxorubicin/Etoposide (n=4), Cisplatin (n=1).

[3] = test system: MCF7 cancer cells; assay: as above; assay type: cell-based; details: 7 days after treatment, doxorubicin 200 nM, etoposide 2 μM, cisplatin 10 μM; for BrdU incorporation (cell division): FIG. 8A; for SA-β-Galactosidase activity / p21^CIP1 expression: FIGS. 8B-C
Description: as §1, §2, §3
as §4, with “MCF7 cancer cells” for “In a second experiment, HCT116”, “treatment, analysed” for “treatment,”, “(n=3),” for “(n=4),”, “(n=2).” for “(n=1).”

[4] = literature: Wilson, O'Connor et al. 2010; cited from earlier work

Structure (SMILES)	Effect of KIRA6 on the senolytic activity of NMT inhibitors [1]	BrdU incorporation (cell division) [2]	SA-β-Galactosidase activity [2]	p21^CIP1 expression [2]	BrdU incorporation (cell division) [3]	SA-β-Galactosidase activity [3]	p21^CIP1 expression [3]	Side effects [4]
CC(C)(C)c1nc(-c2ccc(NC(=O)Nc3cccc(C(F)(F)F)c3)c3ccccc23)c2c(N)nccn12 [KIRA6, reference compound]	prevented the senolytic activity of NMT inhibitors	–	–	–	–	–	–	–
COc1cc([C@@H]2c3cc4c(cc3[C@@H](O[C@@H]3O[C@@H]5CO[C@@H](C)O[C@H]5[C@H](O)[C@H]3O)[C@H]3COC(=O)[C@H]23)OCO4)cc(OC)c1O [etoposide]	–	stopped proliferating	upregulated	upregulated	stopped proliferating	upregulated	upregulated	–
COc1cccc2c1C(=O)c1c(O)c3c(c(O)c1C2=O)C[C@@](O)(C(=O)CO)C[C@@H]3O[C@H]1C[C@H](N)[C@H](O)[C@H](C)O1 [doxorubicin]	–	stopped proliferating	upregulated	upregulated	stopped proliferating	upregulated	upregulated	–
N.N.[Cl][Pt][Cl] [cisplatin]	–	stopped proliferating	upregulated	upregulated	stopped proliferating	upregulated	upregulated	–
CC1(C)CCC(c2ccc(Cl)cc2)=C(CN2CCN(c3ccc(C(=O)NS(=O)(=O)c4ccc(N[C@H](CCN5CCOCC5)CSc5ccccc5)c(S(=O)(=O)C(F)(F)F)c4)cc3)CC2)C1 [ABT-263]	–	–	–	–	–	–	–	significant neutropenia and thrombocytopenia
